{
  "source": "patent US20110152267A1",
  "about": "“Compositions and Methods for Treating Hyperproliferative Disorders” (Texas Tech University System, priority 2009, published 2011)",
  "assay_type_in_all_cases": "cell-based, human",
  "key": {"[1]": {"tested_on": "OVCAR-8 ovarian adenocarcinoma cell line", "assay": "DIMSCAN cytotoxicity, fenretinide + L-threo-sphinganines 3:1 (Example B15)", "parameters": "key to CI (Combination Index): Chou-Talalay CI: <0.9 synergy, 0.9-1.1 additive, >1.1 antagonism", "details": "96 h", "experimental": "(§1) Cytotoxicity Assay—Once again, cytotoxicity is determined using the DIMSCAN assay system (R. Proffitt et al., Cytometry 24, 204-213 (1996); T. Frgala et al., Mol Cancer Ther. 6:886-97, 2007). The system employs digital imaging microscopy to quantify viable cells, which selectively accumulate fluorescein diacetate to become brightly fluorescent. The system is capable of measuring cytotoxicity over a 4-5 log dynamic range by quenching the residual fluorescence of dead and dying cells with eosin Y and quantifying the total fluorescence of viable cells using digital thresholding. Measured fluorescence is directly proportionate to the number of viable cells. A comparison of the total fluorescence of a drug-treated cell population to the fluorescence of a similar number of untreated cells yields a survival fraction. In brief, 2000 to 10,000 cells/well (depending on size and growth rates) are replicate plated into 60 wells of a 96-well tissue culture plate in 0.1 mL of whole medium and allowed to attach overnight. Drug(s) are then added in 0.05 mL of whole medium to the final concentrations indicated. Drugs (fenretinide, and various chain length L-threo-sphinganines) were tested both as single agents and in a 3:1 ratio of fenretinide:sphinganine. C18-L-threo-sphinganine, or “safingol,” was also tested and results shown for reference. There are 12 wells treated per drug concentration. Twelve wells receive drug vehicle-only to the appropriate final concentration and serve as controls for the plate. Cells are incubated for 96 hours at 37° C. in ambient air with 5% CO2. Fluorescein diacetate is then added to each well in 0.05 mL media to a final concentration of 8 microgram/mL. Cells are incubated for a further 15 minutes at 37° C. and 0.03 mL of 0.5% eosin Y is added to each well. Total fluorescence of viable cells is then measured by digital imaging microscopy. Results were graphed as the ratio of the fluoresecence of drug-treated wells to non-drug treated control wells (i.e., Survival Fraction). All tests were performed at least twice. Representative results are shown.\n(§2) The Combination Index (CI) is a term to describe mathematical modeling of the pharmacologic effects on cytotoxicity (cell death) of two drugs in combination based. Cytotoxic “synergy” is defined as a cell death affect which is greater than would be expected from a simple product of the single agent cytotoxicities alone (i.e. an “additive” effect). By Chou-Talalay analysis, a CI<0.9 on a Fraction Affected (“Fa”, i.e. fraction of cells killed) indicates synergy, with smaller numbers indicating greater synergy; a CI of 0.9-1.1 signifies an additive or near-additive effect; and a CI>1.1 means the drug combination is antagonistic.\nFenretinide and L-threo-sphinganines tested in human ovarian adenocarcinoma (ovarian cancer) cell line, OVCAR-8."}, "[2]": {"tested_on": "HT-29 colorectal adenocarcinoma cell line", "assay": "DIMSCAN cytotoxicity, fenretinide + L-threo-sphinganines 3:1 (Example B10)", "details": "96 h", "experimental": "as §1, §2\nFenretinide and L-threo-sphinganines tested in human colorectal adenocarcinoma (colon cancer) cell line, HT-29."}, "[3]": {"tested_on": "A-2058 melanoma cell line", "assay": "DIMSCAN cytotoxicity, fenretinide + L-threo-sphinganines 3:1 (Example B11)", "details": "96 h", "experimental": "as §1, §2\nFenretinide and L-threo-sphinganines tested in human melanoma (skin cancer) cell line, A-2058."}, "[4]": {"tested_on": "A-549 lung adenocarcinoma cell line", "assay": "DIMSCAN cytotoxicity, fenretinide + L-threo-sphinganines 3:1 (Example B13)", "details": "96 h", "experimental": "as §1, §2\nFenretinide and L-threo-sphinganines tested in human lung adenocarcinoma (lung cancer) cell line, A-549."}, "[5]": {"tested_on": "MOLT-4 acute lymphoblastic leukemia cell line", "assay": "DIMSCAN cytotoxicity, fenretinide + L-threo-sphinganines 3:1 (Example B20)", "experimental": "as §1, §2\n(§3) Fenretinide and L-threo-sphinganines tested in human acute lymphoblastic leukemia (pediatric ALL, a blood cancer) cell lines, COG-LL-317 and MOLT-4."}, "[6]": {"tested_on": "COG-LL-317 acute lymphoblastic leukemia cell line", "assay": "DIMSCAN cytotoxicity, fenretinide + L-threo-sphinganines 3:1 (Example B20)", "experimental": "as §1, §2, §3"}, "[7]": {"tested_on": "U-118 Glioblastoma cell line", "assay": "DIMSCAN cytotoxicity, fenretinide + L-threo-sphinganines 3:1 (Example B5)", "parameters": "key to CI (Combination Index): CI<0.9 synergy, 0.9-1.1 additive, >1.1 antagonistic", "details": "U-118 MG, 96 h", "experimental": "as §1, §2\nFenretinide and L-threo-sphinganines tested in human Glioblastoma (brain cancer) cell line, U-118."}, "[8]": {"tested_on": "LNCaP prostate adenocarcinoma cell line", "assay": "DIMSCAN cytotoxicity, fenretinide + L-threo-sphinganines 3:1 (Example B16)", "details": "LNCaP.FGC", "experimental": "as §1, §2\nFenretinide and L-threo-sphinganines tested in human prostate adenocarcinoma (prostate cancer) cell line, LNCaP."}, "[9]": {"details": "4-HPR 1.5 μM + L-threo-sphinganine 0.5 μM"}, "[10]": {"details": "4-HPR 3 μM + L-threo-sphinganine 1 μM"}, "[11]": {"details": "4-HPR 6 μM + L-threo-sphinganine 2 μM"}, "[12]": {"details": "4-HPR 9 μM + L-threo-sphinganine 3 μM"}, "[13]": {"details": "4-HPR 12 μM + L-threo-sphinganine 4 μM"}},
  "data": [
    {"smiles": "CCCCCCCCCCCCCC[C@H](O)[C@@H](N)CO", "note": "[C17, (2S,3S)-2-amino-1,3-heptadecanediol]", "values": [
      {"measurement": "CI (Combination Index)", "setting": "[1]; [9]", "result": 0.2},
      {"measurement": "Fa (fraction affected)", "setting": "[1]; [9]", "result": 0.467},
      {"measurement": "CI (Combination Index)", "setting": "[1]; [10]", "result": 0.4},
      {"measurement": "Fa (fraction affected)", "setting": "[1]; [10]", "result": 0.519},
      {"measurement": "CI (Combination Index)", "setting": "[1]; [11]", "result": 0.5},
      {"measurement": "Fa (fraction affected)", "setting": "[1]; [11]", "result": 0.676},
      {"measurement": "CI (Combination Index)", "setting": "[1]; [12]", "result": 0.4},
      {"measurement": "Fa (fraction affected)", "setting": "[1]; [12]", "result": 0.903},
      {"measurement": "CI (Combination Index)", "setting": "[2]; [9]", "result": 1.1},
      {"measurement": "Fa (fraction affected)", "setting": "[2]; [9]", "result": 0.112},
      {"measurement": "CI (Combination Index)", "setting": "[2]; [10]", "result": 0.8},
      {"measurement": "Fa (fraction affected)", "setting": "[2]; [10]", "result": 0.661},
      {"measurement": "CI (Combination Index)", "setting": "[2]; [11]", "result": 0.6},
      {"measurement": "Fa (fraction affected)", "setting": "[2]; [11]", "result": 0.974},
      {"measurement": "CI (Combination Index)", "setting": "[2]; [12]", "result": 0.5},
      {"measurement": "Fa (fraction affected)", "setting": "[2]; [12]", "result": 0.993},
      {"measurement": "CI (Combination Index)", "setting": "[3]; [9]", "result": 0.9},
      {"measurement": "Fa (fraction affected)", "setting": "[3]; [9]", "result": 0.211},
      {"measurement": "CI (Combination Index)", "setting": "[3]; [10]", "result": 1.2},
      {"measurement": "Fa (fraction affected)", "setting": "[3]; [10]", "result": 0.359},
      {"measurement": "CI (Combination Index)", "setting": "[3]; [11]", "result": 1.4},
      {"measurement": "Fa (fraction affected)", "setting": "[3]; [11]", "result": 0.664},
      {"measurement": "CI (Combination Index)", "setting": "[3]; [12]", "result": 1.5},
      {"measurement": "Fa (fraction affected)", "setting": "[3]; [12]", "result": 0.849},
      {"measurement": "CI (Combination Index)", "setting": "[4]; [9]", "result": 1.6},
      {"measurement": "Fa (fraction affected)", "setting": "[4]; [9]", "result": 0.01},
      {"measurement": "CI (Combination Index)", "setting": "[4]; [10]", "result": 1.5},
      {"measurement": "Fa (fraction affected)", "setting": "[4]; [10]", "result": 0.010},
      {"measurement": "CI (Combination Index)", "setting": "[4]; [11]", "result": 1.0},
      {"measurement": "Fa (fraction affected)", "setting": "[4]; [11]", "result": 0.010},
      {"measurement": "CI (Combination Index)", "setting": "[4]; [12]", "result": 1.1},
      {"measurement": "Fa (fraction affected)", "setting": "[4]; [12]", "result": 0.010},
      {"measurement": "CI", "setting": "[5]; [10]", "result": 1.0},
      {"measurement": "Fa", "setting": "[5]; [10]", "result": 0.807},
      {"measurement": "CI", "setting": "[5]; [11]", "result": 0.7},
      {"measurement": "Fa", "setting": "[5]; [11]", "result": 0.998},
      {"measurement": "CI", "setting": "[5]; [12]", "result": 0.8},
      {"measurement": "Fa", "setting": "[5]; [12]", "result": 0.999},
      {"measurement": "Fa", "setting": "[5]; [13]", "result": 1},
      {"measurement": "CI", "setting": "[6]; [10]", "result": 0.8},
      {"measurement": "Fa", "setting": "[6]; [10]", "result": 0.993},
      {"measurement": "CI", "setting": "[6]; [11]", "result": 1.3},
      {"measurement": "Fa", "setting": "[6]; [11]", "result": 0.9993},
      {"measurement": "CI", "setting": "[6]; [12]", "result": 0.5},
      {"measurement": "Fa", "setting": "[6]; [12]", "result": 0.9999},
      {"measurement": "Fa", "setting": "[6]; [13]", "result": 1},
      {"measurement": "CI (Combination Index)", "setting": "[7]; [9]", "result": 1.7},
      {"measurement": "Fa (fraction affected)", "setting": "[7]; [9]", "result": 0.519},
      {"measurement": "CI (Combination Index)", "setting": "[7]; [10]", "result": 1.8},
      {"measurement": "Fa (fraction affected)", "setting": "[7]; [10]", "result": 0.791},
      {"measurement": "CI (Combination Index)", "setting": "[7]; [11]", "result": 1.5},
      {"measurement": "Fa (fraction affected)", "setting": "[7]; [11]", "result": 0.951},
      {"measurement": "CI (Combination Index)", "setting": "[7]; [12]", "result": 0.7},
      {"measurement": "Fa (fraction affected)", "setting": "[7]; [12]", "result": 0.995},
      {"measurement": "CI", "setting": "[8]; [9]", "result": 0.3},
      {"measurement": "Fa", "setting": "[8]; [9]", "result": 0.887},
      {"measurement": "CI", "setting": "[8]; [10]", "result": 0.3},
      {"measurement": "Fa", "setting": "[8]; [10]", "result": 0.967},
      {"measurement": "CI", "setting": "[8]; [11]", "result": 0.2},
      {"measurement": "Fa", "setting": "[8]; [11]", "result": 0.991},
      {"measurement": "CI", "setting": "[8]; [12]", "result": 0.1},
      {"measurement": "Fa", "setting": "[8]; [12]", "result": 0.999}
    ]}
  ]
}
